Experimental data from US20240150334A1, “HSD17B13 INHIBITORS AND/OR DEGRADERS” (Pfizer Inc., priority 2022, published 2024).

Key:
HSD17B13 enzyme = HSD17B13 enzyme (Homo sapiens (Human), UniProt Q7Z5P4); assay: hHSD17B13 IC50 Assay (FAC beta-estradiol), purified protein enzyme activity assay with NAD(P)H-Glo luciferase readout; type: biochemical; details: geometric mean, 12 μM FAC beta-estradiol, 500 μM NAD+, read-out: hHSD17B13_IC50 GMean IC50
Protocol: The following protocols may of course be varied by those skilled in the art. hHSD17B13 IC50 Assay (FAC beta-estradiol)
HSD17B13 enzyme inhibition potency of test compounds was determined using a purified protein biochemical enzyme activity assay, using NAD(P)H-Glo luciferase readout (Promega). HSD17B13 enzyme uses the oxidized form of nicotinamide adenine dinucleotide (NAD+) as a cofactor during metabolism of Beta-Estradiol (substrate) to […], while converting NAD+ to the reduced form (NADH). The Promega NAD(P)H-Glo™ assay is a homogeneous bioluminescent assay that generates a light signal from biochemical reactions that contain NADH (or nicotinamide adenine dinucleotide phosphate, NADPH). In the presence of NADH (or NADPH), the enzyme Reductase reduces a proluciferin reductase substrate to form luciferin. Luciferin then is quantified using Ultra-Glo™ Recombinant Luciferase (rLuciferase), and the light signal produced is proportional to the amount of NAD(P)H in the sample. […] The reaction was initiated by the addition of 2 μL/well purified HSD17B13 protein (30 nM FAC in assay buffer). Compound, substrate mix and HSD17B13 protein was incubated in the dark at room temperature for 2 hours before the addition of 3 μL/well NAD(P)H-Glo detection reagent, prepared from luciferase detection reagent and reductase/reductase substrate, as per manufacturer's instructions (Promega, G9061). Detection reagent was incubated in the dark for 1 hour at room temperature before plates were read on the Envision plate reader (Perkin Elmer) using a luminescent protocol. Data expressed as relative luminescent units (RLUs) were then normalized to control wells using Activity Base (IDBS). Zero percent effect (ZPE) was defined as RLUs generated from uninhibited HSD17B13 protein (vehicle control).

wild type human HSD17B13 = wild type human HSD17B13 (Homo sapiens (Human), UniProt Q7Z5P4); assay: HEK_Beta-Est LCMS_IC50_Tekcel, whole-cell HEK-HSD17B13 inhibition assay, estrone production by LCMS; type: cell-based; details: geometric mean, HEK cells stably expressing wild type human HSD17B13, 25 μM FAC beta-estradiol, read-out: HEK_Beta-Est LCMS_IC50—Tekcel GMean IC50
Chain of wild type human HSD17B13 (Q7Z5P4 20-300): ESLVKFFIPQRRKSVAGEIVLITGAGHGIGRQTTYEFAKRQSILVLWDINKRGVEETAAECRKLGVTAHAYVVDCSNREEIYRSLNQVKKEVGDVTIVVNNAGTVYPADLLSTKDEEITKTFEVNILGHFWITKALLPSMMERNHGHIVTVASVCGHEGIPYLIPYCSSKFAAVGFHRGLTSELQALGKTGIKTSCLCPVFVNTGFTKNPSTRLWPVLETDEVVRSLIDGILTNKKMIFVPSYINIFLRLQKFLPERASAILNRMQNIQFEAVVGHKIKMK
Procedure, shortened: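 Readout was LCMS quantitation of estrone made from beta-estradiol with NAD+ as cofactor. Whole HEK-HSD17B13 cells were given compound for 1 hour, then the reaction for 2 hours, both at 37° C. Product area ratios were normalized to vehicle controls as zero percent effect.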

Chain of HSD17B13 enzyme (Q7Z5P4 20-300): as above

Compound | IC50 (HSD17B13 enzyme) [nM] | IC50 (wild type human HSD17B13) [nM]
CN1CCn2ncc(-c3ccc4cn([C@H]5CC[C@H](CNC(=O)c6cc(F)c(O)c(F)c6)CC5)nc4c3)c21 [Example 41, 3,5-difluoro-4-hydroxy-N-({(1r,4r)-4-[6-(1-methyl-2,3-dihydro-1H-imidazo[1,2-b]pyrazol-7-yl)-2H-indazol-2-yl]cyclohexyl}methyl) benzamide] | 21 | 440
COc1nn(C)cc1-c1ccc2cn([C@H]3CC[C@H](CNC(=O)c4cc(F)c(O)c(F)c4)CC3)nc2c1 [Example 42, 3,5-difluoro-4-hydroxy-N-({(1r,4r)-4-[6-(3-methoxy-1-methyl-1H-pyrazol-4-yl)-2H-indazol-2-yl]cyclohexyl}methyl) benzamide] | 11 | 260
O=C(NC[C@H]1CC[C@H](n2cc3ccc(-c4cnn(C5COC5)c4)cc3n2)CC1)c1cc(F)c(O)c(F)c1 [Example 45, 3,5-difluoro-4-hydroxy-N-{[(1r,4r)-4-{6-[1-(oxetan-3-yl)-1H-pyrazol-4-yl]-2H-indazol-2-yl}cyclohexyl]methyl} benzamide] | 5.4 | 220
Cn1ncc(-c2ccc3cn([C@H]4CC[C@H](CNC(=O)c5cc(F)c(O)c(F)c5)CC4)nc3c2)c1C(F)(F)F [Example 46, 3,5-difluoro-4-hydroxy-N-{[(1r,4r)-4-{6-[1-methyl-5-(trifluoro-methyl)-1H-pyrazol-4-yl]-2H-indazol-2-yl}cyclohexyl]methyl}benzamide] | 9.5 | 450
Cc1nn(C)cc1-c1ccc2cn([C@H]3CC[C@H](CNC(=O)c4cc(F)c(O)c(F)c4)CC3)nc2c1 [Example 50, N-({(1r,4r)-4-[6-(1,3-dimethyl-1H-pyrazol-4-yl)-2H-indazol-2-yl]cyclohexyl}methyl)-3,5-difluoro-4-hydroxybenzamide] | 11 | 250
Cn1cc(-c2ccc3cn([C@H]4CC[C@H](CNC(=O)c5cc(F)c(O)c(F)c5)CC4)nc3c2)c(F)n1 [Example 51, 3,5-difluoro-N-({(1r,4r)-4-[6-(3-fluoro-1-methyl-1H-pyrazol-4-yl)-2H-indazol-2-yl]cyclohexyl}methyl)-4-hydroxybenzamide] | 6.5 | 120
Cc1cc(C)nc(-c2ccc3cn([C@H]4CC[C@H](CNC(=O)c5cc(F)c(O)c(F)c5)CC4)nc3c2)n1 [Example 52, N-({(1r,4r)-4-[6-(4,6-dimethylpyrimidin-2-yl)-2H-indazol-2-yl]cyclohexyl}methyl)-3,5-difluoro-4-hydroxybenzamide] | 15 | 330
Cc1ccnc(-c2ccc3cn([C@H]4CC[C@H](CNC(=O)c5cc(F)c(O)c(F)c5)CC4)nc3c2)n1 [Example 53, 3,5-difluoro-4-hydroxy-N-({(1r,4r)-4-[6-(4-methylpyrimidin-2-yl)-2H-indazol-2-yl]cyclohexyl}methyl)benzamide] | 4.4 | 200

The remaining lines, values ahead:

IC50 (HSD17B13 enzyme) [nM] | IC50 (wild type human HSD17B13) [nM] | Compound
4.3 | 160 | CC(C)n1cc(-c2ccc3cn([C@H]4CC[C@H](CNC(=O)c5cc(F)c(O)c(F)c5)CC4)nc3c2)cn1 [Example 40, 3,5-difluoro-4-hydroxy-N-{[(1r,4r)-4-{6-[1-(propan-2-yl)-1H-pyrazol-4-yl]-2H-indazol-2-yl}cyclohexyl]methyl} benzamide]
< 2.6 | 92 | O=C(NC[C@H]1CC[C@H](n2cc3ccc(-c4cnn(C(F)F)c4)cc3n2)CC1)c1cc(F)c(O)c(F)c1 [Example 44, N-{[(1r,4r)-4-{6-[1-(difluoromethyl)-1H-pyrazol-4-yl]-2H-indazol-2-yl}cyclohexyl]methyl}-3,5-difluoro-4-hydroxybenzamide]
< 4.4 | 110 | CCn1cc(-c2ccc3cn([C@H]4CC[C@H](CNC(=O)c5cc(F)c(O)c(F)c5)CC4)nc3c2)cn1 [Example 47, N-({(1r,4r)-4-[6-(1-ethyl-1H-pyrazol-4-yl)-2H-indazol-2-yl]cyclohexyl}methyl)-3,5-difluoro-4-hydroxybenzamide]
